# Data published in patent publication US20100105638A1, “COSMETIC COMPOSITIONS” (priority 2007, published 2010).
# Like-named read-outs stand apart in the source and are kept apart here.
# Columns and labels:
# [1] = Solubility of Biotin in aqueous niacinamide / sodium ascorbyl phosphate solutions (addition until turbid); type: physicochemical
# Procedure: The solubility of Biotin was assessed in aqueous niacinamide (Niacinamide PC, DSM Nutritional Products)/sodium ascorbyl phosphate (STAY-C® 50, DSM Nutritional Products) solutions in different concentration. As reference, the solubility of biotin in water was assessed.
# After the addition of 5 g of water into a 10 ml glass vial, STAY-C® 50 and Niacinamide PC were added in order to yield the ratios and wt. % as indicated in table 1. The mixtures were stirred with a magnetic stirrer at RT until STAY-C® 50 and Niacinamide PC were completely dissolved. Then, biotin was added in about 1 mg steps to the mixture until the solution becomes turbid. This experiment was repeated twice.
# The sum of the amount of biotin which was added before the turbidity occurred is taken as the solubility of Biotin.
# [2] = hot water; cited from earlier work
smiles,measurement,setting,value
O=C(O)CCCC[C@@H]1SC[C@@H]2NC(=O)N[C@@H]21 [Biotin],Solubility of Biotin,"[1]; Reference: water without STAY-C 50 and Niacinamide PC, RT",0.022 wt. %
same,Solubility of Biotin,"[1]; water, STAY-C 50 0.1 wt. %, Niacinamide PC 1 wt. %, ratio 1:10, RT",0.15 wt. %
same,Solubility of Biotin,"[1]; water, STAY-C 50 0.1 wt. %, Niacinamide PC 3 wt. %, ratio 1:30, RT",0.17 wt. %
same,Solubility of Biotin,"[1]; water, STAY-C 50 0.1 wt. %, Niacinamide PC 5 wt. %, ratio 1:50, RT",0.20 wt. %
same,Solubility of Biotin,"[1]; water, STAY-C 50 0.1 wt. %, Niacinamide PC 10 wt. %, ratio 1:100, RT",0.26 wt. %
same,Solubility of Biotin,"[1]; water, STAY-C 50 0.5 wt. %, Niacinamide PC 1 wt. %, ratio 1:2, RT",0.33 wt. %
same,Solubility of Biotin,"[1]; water, STAY-C 50 0.5 wt. %, Niacinamide PC 3 wt. %, ratio 1:6, RT",0.38 wt. %
same,Solubility of Biotin,"[1]; water, STAY-C 50 0.5 wt. %, Niacinamide PC 5 wt. %, ratio 1:10, RT",0.41 wt. %
same,Solubility of Biotin,"[1]; water, STAY-C 50 0.5 wt. %, Niacinamide PC 10 wt. %, ratio 1:20, RT",0.47 wt. %
same,Solubility of Biotin,"[1]; water, STAY-C 50 1.0 wt. %, Niacinamide PC 1 wt. %, ratio 1:1, RT",0.64 wt. %
same,Solubility of Biotin,"[1]; water, STAY-C 50 1.0 wt. %, Niacinamide PC 3 wt. %, ratio 1:3, RT",0.66 wt. %
same,Solubility of Biotin,"[1]; water, STAY-C 50 1.0 wt. %, Niacinamide PC 5 wt. %, ratio 1:5, RT",0.70 wt. %
same,Solubility of Biotin,"[1]; water, STAY-C 50 1.0 wt. %, Niacinamide PC 10 wt. %, ratio 1:10, RT",0.76 wt. %
same,Solubility of Biotin,"[1]; water, STAY-C 50 3.0 wt. %, Niacinamide PC 1 wt. %, ratio 3:1, RT",1.53 wt. %
same,Solubility of Biotin,"[1]; water, STAY-C 50 3.0 wt. %, Niacinamide PC 3 wt. %, ratio 1:1, RT",1.65 wt. %
same,Solubility of Biotin,"[1]; water, STAY-C 50 3.0 wt. %, Niacinamide PC 5 wt. %, ratio 1:1.6, RT",1.71 wt. %
same,Solubility of Biotin,"[1]; water, STAY-C 50 3.0 wt. %, Niacinamide PC 10 wt. %, ratio 1:3.3, RT",1.78 wt. %
same,Solubility of Biotin,[2],about 0.02 g/100 ml
